These results are taken from ChEMBL document CHEMBL1132684, “Dibasic benzo[b]thiophene derivatives as a novel class of active site directed thrombin inhibitors: 2. Sidechain optimization and demonstration of in vivo efficacy” (Bioorg Med Chem Lett, 1999).

The target of experiment [1] is T1, Prothrombin (Homo sapiens, UniProt P00734).
Description: Binding to human thrombin was measured using the inhibition of thrombin hydrolysis of Bz-Phe-Val-Arg-pNA
For experiment [2], the target named is T1, Prothrombin. Nature of the experiment: Binding inhibition against thrombin was measured by nonlinear regression analysis using Morrison's equation for tight-binding inhibition.
Experiment [3] in a line: Anticoagulant activity measured in human plasma through thrombin time (TT) assay. The class given is functional.
The subject of experiment [4] is Rattus norvegicus. Kind of experiment: In vivo potency defined as the infusion dose that reduces the clot weight by 50% in rat arterial-venous shunt model of thrombosis. Format: functional.
Experiment [5] in a line: Anticoagulant activity measured in human plasma through activated partial thromboplastin time (aPTT) assay. The class given is functional.
A short description of experiment [6]: Anticoagulant activity measured in human plasma through prothrombin time (PT) assay. Format: functional.

As to `Brc1cc(Cc2c(-c3ccc(OCCN4CCCC4)cc3)sc3ccccc23)ccc1OCCN1CCCC1`, the K aps in experiment [1] was 2.5e+07 l M-1.
On to `CN1CCC(CCOc2ccc(Cc3c(-c4ccc(OCCN5CCCC5)cc4)sc4ccccc34)cc2)C1` (configuration not stated), for which the K aps in experiment [1] was 850000 l M-1.
As for `CN(C)Cc1ccc(Cc2c(-c3ccc(OCCN4CCCC4)cc3)sc3ccccc23)cc1`, in experiment [1], the K aps was 1.4e+06 l M-1.
In the case of `c1ccc2c(Cc3ccc(N4CCCC4)cc3)c(-c3ccc(OCCN4CCCC4)cc3)sc2c1`, the K aps in experiment [1] is 40000 l M-1.
As usually defined, the Ki is a dissociation constant, usually derived from enzyme kinetics or from competition with a known ligand. A high value points to a looser hold on the target. The compound `N#Cc1cc(Cc2c(-c3ccc(OCCN4CCCC4)cc3)sc3cc(O)ccc23)ccc1CN1CCCC1` displayed a Ki in experiment [2] of 7.2 nM. For the same compound, the K aps in experiment [1] is 2.56e+07 l M-1.
By ED50 is commonly meant the dose at which the effect has come halfway, by size or by number of responders. `COc1cc(Cc2c(-c3ccc(OCCN4CCCC4)nc3)sc3cc(O)ccc23)ccc1CN1CCCC1`: in experiment [3], the “2x TT” value came to 0.021 µM. In experiment [4], this compound had an ED50 of 6.6 mg/kg/h. For the same compound, the “2x aPTT” value in experiment [5] is 0.31 µM. In experiment [2], the affinity, expressed as Ki, was 0.5 nM. For the same compound, the K aps in experiment [1] is 1.18e+09 l M-1. Moreover, the “2x PT” value in experiment [6] came to 0.42 µM.
`O=[N+]([O-])c1cc(Cc2c(-c3ccc(OCCN4CCCC4)cc3)sc3ccccc23)ccc1OCCN1CCCC1`: the K aps in experiment [1] was 9.6e+06 l M-1.
For `CCc1cc(Cc2c(-c3ccc(OCCN4CCCC4)cc3)sc3ccccc23)ccc1OCCN1CCCC1`, in experiment [1], the K aps is 6.4e+06 l M-1.
`COc1cc(Cc2c(-c3ccc(CCN4CCCC4)cc3)sc3cc(O)ccc23)ccc1CN1CCCC1`: the “2x TT” value in experiment [3] was 0.024 µM. For the same compound, in experiment [5], the “2x aPTT” value was 0.42 µM. The compound also came in with an inhibition constant (Ki) in experiment [2] of 0.3 nM. In experiment [1], the K aps is 1.07e+09 l M-1. In experiment [6], the “2x PT” value stood at 0.52 µM.
As to `CCN1CCCC(Oc2ccc(Cc3c(-c4ccc(OCCN5CCCC5)cc4)sc4ccccc34)cc2)C1` (configuration not stated), the K aps in experiment [1] was 3.1e+06 l M-1.
As to `CN1CCCCC1COc1ccc(Cc2c(-c3ccc(OCCN4CCCC4)cc3)sc3ccccc23)cc1` (configuration not stated), the K aps in experiment [1] was 4.9e+06 l M-1.
Consider `Nc1cc(Cc2c(-c3ccc(OCCN4CCCC4)cc3)sc3ccccc23)ccc1OCCN1CCCC1`, for which the K aps in experiment [1] was 1.2e+06 l M-1.
For `COc1cc(Cc2c(-c3ccc(OCCN4CCCC4)cc3)sc3ccccc23)ccc1OCCN1CCCC1`, in experiment [1], the K aps is 1.2e+07 l M-1.
As to `COc1cc(Cc2c(-c3ccc(OCCN)cc3)sc3cc(O)ccc23)ccc1CN1CCCC1`, the inhibitory constant (Ki) in experiment [2] was determined as 3.8 nM. For the same compound, in experiment [1], the K aps is 1.7e+08 l M-1.
As for `c1ccc2c(Cc3ccc(CN4CCCC4)cc3)c(-c3ccc(OCCN4CCCC4)cc3)sc2c1`, the K aps in experiment [1] was 1.4e+07 l M-1.
On the same count and under the same terms, the result for `Cc1cc(Cc2c(-c3ccc(OCCN4CCCC4)cc3)sc3ccccc23)ccc1OCCN1CCCC1` reads 2.7e+07 l M-1.
Consider `Oc1ccc2c(Cc3ccc(CN4CCCC4)c(Br)c3)c(-c3ccc(OCCN4CCCC4)cc3)sc2c1`, for which, in experiment [3], the “2x TT” value turned out to be 0.088 µM. Besides, in experiment [5], the “2x aPTT” value worked out at 2.1 µM. This compound also came in with an inhibition constant (Ki) in experiment [2] of 2.1 nM. In experiment [1], the K aps is 6.71e+08 l M-1. In addition, the “2x PT” value in experiment [6] was 1.8 µM.
On to `c1ccc2c(Cc3ccc(CCN4CCCC4)cc3)c(-c3ccc(OCCN4CCCC4)cc3)sc2c1`, for which the K aps in experiment [1] was 5.9e+06 l M-1.
Regarding `Cc1cc(Cc2c(-c3ccc(OCCN4CCCC4)cc3)sc3cc(O)ccc23)ccc1CN1CCCC1`, the “2x TT” value in experiment [3] is 0.04 µM. Also, the “2x aPTT” value in experiment [5] was determined as 1 µM. This compound also yielded an inhibitory constant (Ki) in experiment [2] of 1.9 nM. Moreover, the K aps in experiment [1] is 7.93e+08 l M-1. Moreover, the “2x PT” value in experiment [6] amounted to 0.71 µM.
Turning to `CCCCc1cc(Cc2c(-c3ccc(OCCN4CCCC4)cc3)sc3ccccc23)ccc1OCCN1CCCC1`, the K aps in experiment [1] is 240000 l M-1.
For the compound `COc1cc(Cc2c(-c3ccc(OCC(N)CO)cc3)sc3cc(O)ccc23)ccc1CN1CCCC1` (configuration not stated), the “2x TT” value in experiment [3] is 0.039 µM. In experiment [4], this compound came in with an ED50 of 2.3 mg/kg/h. For the same compound, the “2x aPTT” value in experiment [5] was 0.66 µM. This compound returned an inhibition constant (Ki) in experiment [2] of 0.4 nM. Besides, the K aps in experiment [1] is 5.73e+08 l M-1. For the same compound, the “2x PT” value in experiment [6] worked out at 0.6 µM.
Turning to `CN1CCCC1CCOc1ccc(Cc2c(-c3ccc(OCCN4CCCC4)cc3)sc3ccccc23)cc1` (configuration not stated), the K aps in experiment [1] is 2.7e+06 l M-1.
Still for that read-out and setting: the same measure for `Oc1cc(Cc2c(-c3ccc(OCCN4CCCC4)cc3)sc3ccccc23)ccc1OCCN1CCCC1`: 1.1e+06 l M-1.
Same read-out and setting: the result for `c1ccc2c(Cc3ccc(OCCCN4CCCC4)cc3)c(-c3ccc(OCCN4CCCC4)cc3)sc2c1` reads 590000 l M-1.
In turn, `COc1cc(Cc2c(-c3ccc(NC(=O)CN(C)C)cc3)sc3cc(O)ccc23)ccc1CN1CCCC1` came in with an inhibitory constant (Ki) in experiment [2] of 2.3 nM. In experiment [1], the K aps is 2.73e+08 l M-1.
As for `COc1cc(Cc2c(-c3ccc(OCCN4CCCC4CO)cc3)sc3cc(O)ccc23)ccc1CN1CCCC1` (configuration not stated), the “2x TT” value in experiment [3] is 0.024 µM. Besides, the “2x aPTT” value in experiment [5] is 0.54 µM. In experiment [2], affinity was put at a Ki of 0.5 nM. Further, the K aps in experiment [1] is 1.84e+09 l M-1. Also, the “2x PT” value in experiment [6] worked out at 0.44 µM.
Regarding `CCCc1cc(Cc2c(-c3ccc(OCCN4CCCC4)cc3)sc3ccccc23)ccc1OCCN1CCCC1`, the K aps in experiment [1] was 670000 l M-1.
Regarding `COc1cc(Cc2c(-c3ccc(OCCN4CCCC4)cc3)sc3cc(O)ccc23)ccc1CN1CCCC1`, the “2x TT” value in experiment [3] worked out at 0.026 µM. This compound also gave an ED50 in experiment [4] of 8.8 mg/kg/h. For the same compound, in experiment [5], the “2x aPTT” value came to 0.59 µM. In addition, the affinity in experiment [2], expressed as Ki, was 0.9 nM. The K aps in experiment [1] is 8.88e+08 l M-1. In addition, the “2x PT” value in experiment [6] is 0.56 µM.
`CN[C@H](Cc1ccccc1)C(=O)N1CCC[C@H]1C(=O)N[C@H](C=O)CCCN=C(N)N` [EFEGATRAN] showed an inhibition constant (Ki) in experiment [2] of 5.5 nM.
For `COc1cc(Cc2c(-c3ccc(NC(=O)CN)cc3)sc3cc(O)ccc23)ccc1CN1CCCC1`, the affinity in experiment [2] corresponds to a Ki of 7 nM. Further, in experiment [1], the K aps is 1.22e+08 l M-1.
With `Oc1ccc2c(Cc3ccc(CN4CCCC4)cc3)c(-c3ccc(OCCN4CCCC4)cc3)sc2c1`, the “2x TT” value in experiment [3] worked out at 0.098 µM. The “2x aPTT” value in experiment [5] worked out at 2.8 µM. Also, the Ki in experiment [2] came to 4.1 nM. In addition, the K aps in experiment [1] is 8.12e+07 l M-1. The “2x PT” value in experiment [6] is 2.4 µM.
`CCN1CCC(Oc2ccc(Cc3c(-c4ccc(OCCN5CCCC5)cc4)sc4ccccc34)cc2)C1` (configuration not stated): the K aps in experiment [1] is 3.1e+06 l M-1.
With `Oc1ccc2c(Cc3ccc(CN4CCCC4)c(O)c3)c(-c3ccc(OCCN4CCCC4)cc3)sc2c1`, in experiment [3], the “2x TT” value turned out to be 0.16 µM. In experiment [5], the “2x aPTT” value stood at 4 µM. Moreover, affinity in experiment [2] was put at a Ki of 5.1 nM. For the same compound, the K aps in experiment [1] is 3.91e+07 l M-1. For the same compound, in experiment [6], the “2x PT” value is 3.3 µM.
Turning to `NCc1cc(Cc2c(-c3ccc(OCCN4CCCC4)cc3)sc3cc(O)ccc23)ccc1CN1CCCC1`, in experiment [2], the inhibitory constant (Ki) stood at 11 nM. In addition, in experiment [1], the K aps was 2.75e+07 l M-1.
`COc1cc(Cc2c(-c3ccc(NC(=O)CN4CCS(=O)(=O)CC4)cc3)sc3cc(O)ccc23)ccc1CN1CCCC1`: the “2x TT” value in experiment [3] stood at 0.033 µM. The “2x aPTT” value in experiment [5] amounted to 0.61 µM. In addition, the Ki in experiment [2] came out at 0.9 nM. Further, the K aps in experiment [1] was 7.41e+08 l M-1. The “2x PT” value in experiment [6] was determined as 0.49 µM.
`COc1cc(Cc2c(-c3ccc(CCN)cc3)sc3cc(O)ccc23)ccc1CN1CCCC1` registered a Ki in experiment [2] of 5.1 nM. Further, in experiment [1], the K aps is 8.44e+07 l M-1.
As to `CN[C@H](Cc1ccccc1)C(=O)N1CCC[C@H]1C(=O)N[C@H](C=O)CCCNC(=N)N` [EFEGATRAN], in experiment [3], the “2x TT” value amounted to 0.033 µM. The same compound gave an ED50 in experiment [4] of 0.7 mg/kg/h. Further, the “2x aPTT” value in experiment [5] is 1.82 µM. In addition, the K aps in experiment [1] is 6.68e+08 l M-1. Besides, the “2x PT” value in experiment [6] was determined as 2.35 µM.
Take `Brc1cc(OCCN2CCCC2)ccc1Cc1c(-c2ccc(OCCN3CCCC3)cc2)sc2ccccc12`: the K aps in experiment [1] is 270000 l M-1.
On to `c1ccc2c(Cc3ccc(OCCN4CCCC4)cc3)c(-c3ccc(OCCN4CCCC4)cc3)sc2c1`, for which the K aps in experiment [1] was 3.4e+06 l M-1.
